Measured values as given in ChEMBL document CHEMBL1833938 (Bioorg Med Chem Lett, 2011).
≈ marks a conversion by molar mass, not a printed value.

How the values were obtained:
physchem [1] = settings: octanol/water, pH 7.4
Escherichia coli = test: microbe, parasite or virus in culture; settings: ATCC 25922
Staphylococcus aureus = test: microbe, parasite or virus in culture; settings: ATCC 29213
[2] = test system: Mycobacterium tuberculosis; test: microbe, parasite or virus in culture; settings: H37Rv
physchem [3] = settings: octanol/water, pH 6.5
physchem [4] = settings: octanol/water, pH 1.5
Francisella tularensis = test: microbe, parasite or virus in culture; settings: Schu S4
physchem [5] = settings: octanol/water, pH 5

| Structure (SMILES) | logD (physchem [1]) | MIC (Escherichia coli) | MIC (Staphylococcus aureus) | MIC [2] | logD (physchem [3]) | logD (physchem [4]) | MIC (Francisella tularensis) | logD (physchem [5]) |
| --- | --- | --- | --- | --- | --- | --- | --- | --- |
| CO[C@@H]1[C@@H](OC(N)=O)[C@@H](O)[C@H](Oc2ccc3c(O)c(NC(=O)c4cc(CC=C(C)C)c(O)c(CN(C)C(=O)CN(C)C)c4)c(=O)oc3c2C)OC1(C)C | 1.32 | > 64 µg/mL | > 64 µg/mL | > 10 µg/mL | 1.15 | -1.18 | > 64 µg/mL | – |
| CO[C@@H]1[C@@H](OC(N)=O)[C@@H](O)[C@H](Oc2ccc3c(O)c(NC(=O)c4cc(CC=C(C)C)c(O)c(CN(C)C(=O)C(C)(C)C)c4)c(=O)oc3c2C)OC1(C)C | 3.58 | > 64 µg/mL | 16 µg/mL (≈ 21.6 µM) | > 10 µg/mL | 4.1 | 4.23 | 64 µg/mL (≈ 86.5 µM) | 4.23 |
| CO[C@@H]1[C@@H](OC(N)=O)[C@@H](O)[C@H](Oc2ccc3c(O)c(NC(=O)c4cc(CC=C(C)C)c(O)c(CN(C)C(=O)[C@H](C)OC(C)=O)c4)c(=O)oc3c2C)OC1(C)C | 1.97 | > 64 µg/mL | 16 µg/mL (≈ 20.8 µM) | 2.5 µg/mL (≈ 3.25 µM) | 2.49 | 2.62 | > 64 µg/mL | 2.62 |
| CO[C@@H]1[C@@H](OC(N)=O)[C@@H](O)[C@H](Oc2ccc3c(O)c(NC(=O)c4cc(CC=C(C)C)c(O)c(CN5CCN(CCCN(C)C)CC5)c4)c(=O)oc3c2C)OC1(C)C | -0.59 | > 64 µg/mL | > 64 µg/mL | > 10 µg/mL | -1.32 | -4 | > 64 µg/mL | -2.97 |
| CO[C@@H]1[C@@H](OC(N)=O)[C@@H](O)[C@H](Oc2ccc3c(O)c(NC(=O)c4cc(CC=C(C)C)c(O)c(CN(C)C(=O)Cc5nnn[nH]5)c4)c(=O)oc3c2C)OC1(C)C | -0.35 | > 64 µg/mL | > 64 µg/mL | > 10 µg/mL | 0.24 | 1.9 | > 64 µg/mL | 1.13 |
| CO[C@@H]1[C@@H](OC(N)=O)[C@@H](O)[C@H](Oc2ccc3c(O)c(NC(=O)c4cc(CC=C(C)C)c(O)c(CN(C)C(=O)CCCS(N)(=O)=O)c4)c(=O)oc3c2C)OC1(C)C | 0.62 | > 64 µg/mL | 16 µg/mL (≈ 19.9 µM) | 10 µg/mL (≈ 12.4 µM) | 1.14 | 1.27 | > 64 µg/mL | 1.27 |
| CO[C@@H]1[C@@H](OC(N)=O)[C@@H](O)[C@H](Oc2ccc3c(O)c(NC(=O)c4cc(CC=C(C)C)c(O)c(CN(C)C(=O)CNC(C)=O)c4)c(=O)oc3c2C)OC1(C)C | 0.67 | > 64 µg/mL | 16 µg/mL (≈ 21.2 µM) | 2.5 µg/mL (≈ 3.31 µM) | 1.19 | 1.33 | > 64 µg/mL | 1.32 |
| CO[C@@H]1[C@@H](OC(N)=O)[C@@H](O)[C@H](Oc2ccc3c(O)c(NC(=O)c4cc(CC=C(C)C)c(O)c(CN5CCCC5)c4)c(=O)oc3c2C)OC1(C)C | 1.39 | > 64 µg/mL | > 64 µg/mL | 10 µg/mL (≈ 14.4 µM) | 1.34 | 0.11 | > 64 µg/mL | 0.38 |
| CCN(CC)Cc1cc(C(=O)Nc2c(O)c3ccc(O[C@@H]4OC(C)(C)[C@H](OC)[C@@H](OC(N)=O)[C@H]4O)c(C)c3oc2=O)cc(CC=C(C)C)c1O | 1.53 | > 64 µg/mL | > 64 µg/mL | > 10 µg/mL | 1.7 | 0.42 | > 64 µg/mL | 0.81 |
| CO[C@@H]1[C@@H](OC(N)=O)[C@@H](O)[C@H](Oc2ccc3c(O)c(NC(=O)c4cc(CC=C(C)C)c(O)c(CN(C)C(=O)CS(C)(=O)=O)c4)c(=O)oc3c2C)OC1(C)C | 0.6 | > 64 µg/mL | > 64 µg/mL | > 10 µg/mL | 1.15 | 1.29 | > 64 µg/mL | 1.28 |
| CO[C@@H]1[C@@H](OC(N)=O)[C@@H](O)[C@H](Oc2ccc3c(O)c(NC(=O)c4cc(CC=C(C)C)c(O)c(CN5CCN(c6ncccn6)CC5)c4)c(=O)oc3c2C)OC1(C)C | 2.48 | > 64 µg/mL | > 64 µg/mL | > 10 µg/mL | 2.63 | -0.46 | > 64 µg/mL | 1.46 |
| CO[C@@H]1[C@@H](OC(N)=O)[C@@H](O)[C@H](Oc2ccc3c(O)c(NC(=O)c4cc(CC=C(C)C)c(O)c(CN(C)C(=O)CCC(=O)O)c4)c(=O)oc3c2C)OC1(C)C | -1.7 | > 64 µg/mL | 64 µg/mL (≈ 84.7 µM) | > 10 µg/mL | -0.61 | 2.25 | > 64 µg/mL | 0.93 |
| CO[C@@H]1[C@@H](OC(N)=O)[C@@H](O)[C@H](Oc2ccc3c(O)c(NC(=O)c4cc(CC=C(C)C)c(O)c(CN(C)C(=O)c5ccccc5)c4)c(=O)oc3c2C)OC1(C)C | 3.63 | > 64 µg/mL | > 64 µg/mL | > 10 µg/mL | 4.15 | 4.28 | > 64 µg/mL | 4.28 |
